Values joined by “and” are separate entries in the source; they are usually repeats but may differ in a detail not shown here. Equal entries are not always repeated. Inconclusive results and toxic doses are left out.

The values that follow come from PubChem BioAssay AID330 (DTP/NCI, 2004).

This test deals with P388 leukemia ip, CD2F1 mice, survival T/C. Put plainly: NCI In Vivo Anticancer Drug Screen. Data for tumor model P388 Leukemia (intraperitoneal) in CD2F1 (CDF1) mice. Conditions: endpoint: median survival time, higher = longer survival. The method in brief:
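Mice carrying the transplanted tumor received test compound or vehicle. Survival was recorded in each group, and the value is the treated-group measurement divided by that of the vehicle-treated control group.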

The mark [1] stands for this setting: dose: 100.0 mg/kg/injection, schedule: Q01DX001 (ip), vehicle: Klucel (hydroxypropylcellulose) (HPC).
Setting [2] is: dose: 50.0 mg/kg/injection, schedule: Q01DX005 (ip), vehicle: Klucel (hydroxypropylcellulose) (HPC).
[3] abbreviates: dose: 100.0 mg/kg/injection, schedule: Q01DX005 (ip), vehicle: Klucel (hydroxypropylcellulose) (HPC).
[4] abbreviates: dose: 200.0 mg/kg/injection, schedule: Q01DX005 (ip), vehicle: Klucel (hydroxypropylcellulose) (HPC).
Setting [5] is: dose: 100.0 mg/kg/injection, schedule: Q01DX009 (ip), vehicle: saline with Tween-80.
Setting [6] is: dose: 100.0 mg/kg/injection, schedule: Q04DX003 (ip), vehicle: saline with Tween-80.
The mark [7] stands for this setting: dose: 200.0 mg/kg/injection, schedule: Q01DX009 (ip), vehicle: saline with Tween-80.
[8] abbreviates: dose: 200.0 mg/kg/injection, schedule: Q04DX003 (ip), vehicle: saline with Tween-80.
Setting [9] is: dose: 400.0 mg/kg/injection, schedule: Q01DX009 (ip), vehicle: saline with Tween-80.
Setting [10] is: dose: 400.0 mg/kg/injection, schedule: Q04DX003 (ip), vehicle: saline with Tween-80.
[11] abbreviates: dose: 50.0 mg/kg/injection, schedule: Q01DX009 (ip), vehicle: saline with Tween-80.

With `CN1C(=O)/C(=C2\SC(=O)N(Cc3nc4ccccc4[nH]3)C2=O)c2cc(Br)ccc21`, the T/C is 98 % of control under setting [1]; 95 % of control (dose: 200.0 mg/kg/injection, schedule: Q01DX001 (ip), vehicle: Klucel (hydroxypropylcellulose) (HPC)); 88 % of control (dose: 400.0 mg/kg/injection, schedule: Q01DX001 (ip), vehicle: Klucel (hydroxypropylcellulose) (HPC)).
Turning to `Cc1c(-c2ccccc2)nn(CC(=O)O)c(=O)c1C#N`, the T/C is 106 % of control (dose: 37.5 mg/kg/injection, schedule: Q04DX002 (ip), vehicle: alkali diluted with water); 104 % of control (dose: 75.0 mg/kg/injection, schedule: Q04DX002 (ip), vehicle: alkali diluted with water); 106 % of control (dose: 150.0 mg/kg/injection, schedule: Q04DX002 (ip), vehicle: alkali diluted with water); 103 % of control (dose: 300.0 mg/kg/injection, schedule: Q04DX002 (ip), vehicle: alkali diluted with water).
With `CNC(=O)On1cc(Cl)cc1C#N`, the T/C was 101 % of control (dose: 50.0 mg/kg/injection, schedule: Q01DX001 (ip), vehicle: Klucel (hydroxypropylcellulose) (HPC)) and 118 % of control under setting [1].
Consider `Nc1nc(=O)n(C2CCCCO2)cc1I` (stereo unspecified), for which the T/C is 105 % of control under setting [2], 102 % of control under setting [3] and 111 % of control under setting [4].
Take `CCC(/C=C/c1ccccc1)=N\NC(=O)c1ccc(C)cc1`: the T/C is, setting by setting: (dose: 6.25 mg/kg/injection, schedule: Q01DX005 (ip), vehicle: saline with Tween-80) 98 % of control; (dose: 12.5 mg/kg/injection, schedule: Q01DX005 (ip), vehicle: saline with Tween-80) 92 % of control; (dose: 25.0 mg/kg/injection, schedule: Q01DX005 (ip), vehicle: saline with Tween-80) 89 % of control.
With `C/C=C(\CCNCCCC)[Si](C)(C)C`, the T/C is 104 % of control (dose: 100.0 mg/kg/injection, schedule: Q04DX002 (ip), vehicle: saline) and 101 % of control (dose: 200.0 mg/kg/injection, schedule: Q04DX002 (ip), vehicle: saline).
With `CCSC(=O)c1ccc(S(=O)(=O)CC)cc1`, the T/C was 102 % of control (dose: 50.0 mg/kg/injection, schedule: Q01DX009 (ip), vehicle: Klucel (hydroxypropylcellulose) (HPC)); 98 % of control (dose: 100.0 mg/kg/injection, schedule: Q01DX009 (ip), vehicle: Klucel (hydroxypropylcellulose) (HPC)); 106 % of control (dose: 200.0 mg/kg/injection, schedule: Q01DX009 (ip), vehicle: Klucel (hydroxypropylcellulose) (HPC)); 107 % of control (dose: 400.0 mg/kg/injection, schedule: Q01DX009 (ip), vehicle: Klucel (hydroxypropylcellulose) (HPC)).
For the compound `ClCC[N+]12CC[N+](CCCl)(CC1)C2.[Cl][Pt]([Cl])([Cl])[Cl]`, the T/C reads like this: (dose: 6.25 mg/kg/injection, schedule: Q01DX009 (ip), vehicle: distilled water + Tween-80) 100 % of control; (dose: 25.0 mg/kg/injection, schedule: Q01DX009 (ip), vehicle: distilled water + Tween-80) 169 % of control.
As to `O=C1C2C3CCC(C2C(=O)N1COP(=O)(O)O)C1C2C(=O)N(COP(=O)(O)O)C(=O)C2C31` (stereo unspecified), the T/C runs as follows: (dose: 40.0 mg/kg/injection, schedule: Q01DX009 (ip), vehicle: water) 103 % of control; (dose: 80.0 mg/kg/injection, schedule: Q01DX009 (ip), vehicle: water) 105 % of control; (dose: 160.0 mg/kg/injection, schedule: Q01DX009 (ip), vehicle: water) 105 % of control; (dose: 320.0 mg/kg/injection, schedule: Q01DX009 (ip), vehicle: water) 124 % of control.
`C/C(=N\N=C(N)N)c1ccc2c(c1)Cc1cc(/C(C)=N/N=C(N)N)ccc1-2`: the T/C by setting is: (dose: 3.12 mg/kg/injection, schedule: Q04DX002 (ip), vehicle: saline with Tween-80) 100 % of control and 107 % of control; (dose: 6.25 mg/kg/injection, schedule: Q04DX002 (ip), vehicle: saline with Tween-80) 107 % of control and 108 % of control; (dose: 12.5 mg/kg/injection, schedule: Q04DX002 (ip), vehicle: saline with Tween-80) 115 % of control (2×) and 122 % of control; (dose: 25.0 mg/kg/injection, schedule: Q04DX002 (ip), vehicle: saline with Tween-80) 120 % of control and 121 % of control and 123 % of control; (dose: 50.0 mg/kg/injection, schedule: Q04DX002 (ip), vehicle: saline with Tween-80) 115 % of control and 121 % of control and 124 % of control; (dose: 100.0 mg/kg/injection, schedule: Q04DX002 (ip), vehicle: saline with Tween-80) 112 % of control and 122 % of control. Further, under “dose: 200.0 mg/kg/injection, schedule: Q04DX002 (ip), vehicle: saline with Tween-80”, the T/C was 122 % of control.
As to `CN(C)CCCN1c2ccccc2Sc2ccc3ccccc3c21`, the T/C is 104 % of control (dose: 50.0 mg/kg/injection, schedule: Q01DX005 (ip), vehicle: saline with Tween-80); 102 % of control (dose: 100.0 mg/kg/injection, schedule: Q01DX005 (ip), vehicle: saline with Tween-80); 104 % of control (dose: 200.0 mg/kg/injection, schedule: Q01DX005 (ip), vehicle: saline with Tween-80).
Regarding `O=C(Nc1ccc2c(c1)Cc1cccc(NC(=O)C(Cl)Cl)c1-2)C(Cl)Cl`, the T/C runs as follows: under setting [5], 90 % of control; under setting [6], 91 % of control; under setting [7], 95 % of control; under setting [8], 91 % of control; under setting [9], 100 % of control; under setting [10], 87 % of control.
As for `CC(CN)OCc1ccccc1` (stereo unspecified), the T/C reads like this: (dose: 12.5 mg/kg/injection, schedule: Q04DX003 (ip), vehicle: saline) 95 % of control; (dose: 25.0 mg/kg/injection, schedule: Q04DX003 (ip), vehicle: saline) 100 % of control; (dose: 50.0 mg/kg/injection, schedule: Q04DX003 (ip), vehicle: saline) 100 % of control.
With `NC(=S)N/N=C\C(=O)c1cccc(O)c1`, the T/C is 99 % of control under setting [11], 100 % of control under setting [5] and 105 % of control under setting [7].
For the compound `COC(=O)/C(C#N)=C/Sc1ccccc1`, the T/C reads like this: (dose: 100.0 mg/kg/injection, schedule: Q01DX001 (ip), vehicle: saline with Tween-80) 101 % of control; (dose: 200.0 mg/kg/injection, schedule: Q01DX001 (ip), vehicle: saline with Tween-80) 98 % of control; (dose: 400.0 mg/kg/injection, schedule: Q01DX001 (ip), vehicle: saline with Tween-80) 97 % of control.
For `S=C(NC1CCCCC1)N1CCC(CCCC2CCN(C(=S)NC3CCCCC3)CC2)CC1`, the T/C was 90 % of control (dose: 25.0 mg/kg/injection, schedule: Q04DX003 (ip), vehicle: saline with Tween-80); 90 % of control under setting [11]; 90 % of control (dose: 50.0 mg/kg/injection, schedule: Q04DX003 (ip), vehicle: saline with Tween-80); 90 % of control and 95 % of control under setting [5]; 90 % of control under setting [6]; 90 % of control under setting [7]. The T/C under setting [8] was 90 % of control, the T/C under setting [9] is 95 % of control and the T/C under setting [10] was 90 % of control.
On to `CC(=O)CCC1=C(C)C(=O)C(=O)C(C)=C1O`, for which the T/C by setting is: (dose: 60.0 mg/kg/injection, schedule: Q01DX005 (ip), vehicle: Klucel (hydroxypropylcellulose) (HPC)) 96 % of control; (dose: 120.0 mg/kg/injection, schedule: Q01DX005 (ip), vehicle: Klucel (hydroxypropylcellulose) (HPC)) 98 % of control.
For the compound `CC(NC(=O)C(CO)NC(=O)OCc1ccccc1)C(=O)O` (stereo unspecified), the T/C was 118 % of control under setting [2], 97 % of control under setting [3] and 108 % of control under setting [4].
